PMC9318203, “Squaramide-Tethered Sulfonamides and Coumarins: Synthesis, Inhibition of Tumor-Associated CAs IX and XII and Docking Simulations” (International Journal of Molecular Sciences, 2022)
“And” between values parts separate entries of the source, which are not always exact repeats. Identical values can stand only once.

Legend:
[1] = molecular target: T1, hCA I (Homo sapiens, UniProt P00915); experiment: stopped-flow CO2 hydrase assay, hCA I; assay type: biochemical
T1 construct: made in house
Experimental: (§1) For that purpose, the stopped-flow CO2 hydration assay was used (Table 1).
(§2) The inhibitory properties of title compounds against CAs were determined using the stopped-flow CO2 hydrase assay, as previously reported.

[2] = molecular target: T2, hCA II (Homo sapiens, UniProt P00918); experiment: stopped-flow CO2 hydrase assay, hCA II; assay type: biochemical
T2 construct: made in house
Experimental: as §1, §2

[3] = molecular target: T3, hCA IX (Homo sapiens, UniProt Q16790); experiment: stopped-flow CO2 hydrase assay, hCA IX; assay type: biochemical; details: for S.I. I/IX: Ki (CA I)/Ki (CA IX); for S.I. II/IX: Ki (CA II)/Ki (CA IX)
T3 construct: made in house
Experimental: as §1, §2

[4] = molecular target: T4, hCA XII (Homo sapiens, UniProt O43570); experiment: stopped-flow CO2 hydrase assay, hCA XII; assay type: biochemical; details: for S.I. I/XII: Ki (CA I)/Ki (CA XII); for S.I. II/XII: Ki (CA II)/Ki (CA XII)
T4 construct: made in house
Experimental: as §1, §2

[5] = test system: A549, HBL-100, HeLa, SW1573, T-47D, WiDr; experiment: antiproliferative assay (NCI protocol), panel of six human tumor cell lines; assay type: cell-based; details: all the cell lines, normoxic conditions
Experimental: Some representative compounds (5a–e, 16b, 16e–i) were also tested as potential antiproliferative agents against a panel of six human tumor cell lines: A549 (non-small cell lung), HBL-100 (breast), HeLa (cervix), SW1573 (non-small cell lung), T-47D (breast), WiDr (colon). Unfortunately, no relevant activity was found for the tested compounds.
Minor modifications of the US National Cancer Institute (NCI) protocol were used.

[6] = coumarin-containing squaramides, incubation time 6 h, mean from three assays
[7] = sulfonamido-containing squaramides, mean from 3 assays, stopped flow

T4 sequence (O43570 25-354): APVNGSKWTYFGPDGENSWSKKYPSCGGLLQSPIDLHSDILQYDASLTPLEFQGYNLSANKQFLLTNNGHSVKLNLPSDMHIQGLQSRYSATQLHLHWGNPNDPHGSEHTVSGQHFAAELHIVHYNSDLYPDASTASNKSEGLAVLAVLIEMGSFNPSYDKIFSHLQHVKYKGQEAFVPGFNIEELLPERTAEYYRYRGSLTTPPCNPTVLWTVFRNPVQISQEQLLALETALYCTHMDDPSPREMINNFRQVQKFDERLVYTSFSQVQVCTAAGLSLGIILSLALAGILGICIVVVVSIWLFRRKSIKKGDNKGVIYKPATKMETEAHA
T1 sequence (P00915 whole entry): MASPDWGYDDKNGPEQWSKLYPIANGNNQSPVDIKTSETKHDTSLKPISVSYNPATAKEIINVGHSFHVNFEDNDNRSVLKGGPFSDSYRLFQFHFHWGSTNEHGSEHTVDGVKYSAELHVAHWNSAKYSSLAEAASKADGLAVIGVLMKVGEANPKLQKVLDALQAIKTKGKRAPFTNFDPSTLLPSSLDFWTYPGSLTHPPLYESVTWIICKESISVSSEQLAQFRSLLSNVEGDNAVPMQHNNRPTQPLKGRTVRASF

SMILES | Ki [1, 6] | Ki [2, 6] | Ki [3, 6] | Ki [4, 6] | Ki [1, 7] | Ki [2, 7] | S.I. I/IX [3] | S.I. II/IX [3] | Ki [3, 7] | S.I. I/XII [4] | S.I. II/XII [4] | Ki [4, 7] | melting point | fold decreased activity compared with 16b, CA IX ([3]; vs 16b) | fold decreased activity compared with 16b, CA XII ([4]; vs 16b) | GI50 [5] | S.I. (range of the selectivity indexes) ([3]; range over I/IX, I/XII, II/IX, II/XII)
Cc1c(C)c2ccc(OCCCCCNc3c(Nc4ccc(Br)cc4)c(=O)c3=O)cc2oc1=O [Compound 16n, 3-[(4′-Bromophenyl)amino]-4-{[5″-(3‴,4‴-dimethyl-2‴-oxo-2‴H-chromen-7″-yl)oxypentyl]amino}cyclobut-3-ene-1,2-dione] | > 10000 nM | > 10000 nM | 132 nM | 69.6 nM | – | – | – | – | – | – | – | – | – | – | – | – | –
COc1ccc(Nc2c(NCCc3ccc(S(N)(=O)=O)cc3)c(=O)c2=O)cc1 [Compound 5b, 3-(p-Methoxyphenyl)amino-4-[2′-(4″-sulfonamidophenyl)ethylamino]cyclobut-3-ene-1,2-dione] | – | – | – | – | 373 nM | 724 nM | 4.0 | 7.8 | 92.5 nM | 2.4 | 4.6 | 158 nM | > 250 °C | – | – | – | –
COc1c(Nc2cccc(S(N)(=O)=O)c2)c(=O)c1=O [Compound 10, 3-Methoxy-4-[3′-(sulfonamidophenyl)]aminocyclobut-3-ene-1,2-dione] | – | – | – | – | 79.9 nM | 40.9 nM | 3.0 | 1.6 | 26.2 nM | 14 | 7.1 | 5.78 nM | – | – | – | – | –
Cc1cc(=O)oc2cc(OCCCCCNc3c(Nc4ccc(Cl)cc4)c(=O)c3=O)ccc12 [Compound 16g, 3-[(4′-Chlorophenyl)amino]-4-{[5″-(4‴-methyl-2‴-oxo-2‴H-chromen-7‴-yl)oxypentyl]amino}cyclobut-3-ene-1,2-dione] | > 10000 nM | > 10000 nM | 65.3 nM | 24.4 nM | – | – | – | – | – | – | – | – | 225 to 227 °C | – | – | – | –
Cc1c(C)c2ccc(OCCCCCNc3c(Nc4ccc(Cl)cc4)c(=O)c3=O)cc2oc1=O [Compound 16m, 3-[(4′-Chlorophenyl)amino]-4-{[5″-(3‴,4‴-dimethyl-2‴-oxo-2‴H-chromen-7‴-yl)oxypentyl]amino}cyclobut-3-ene-1,2-dione] | > 10000 nM | > 10000 nM | 96.6 nM | 43 nM | – | – | – | – | – | – | – | – | > 250 °C | – | – | – | –
NS(=O)(=O)c1ccc(CCNc2c(Nc3ccc(Cl)cc3)c(=O)c2=O)cc1 [Compound 5c, 3-(p-Chlorophenyl)amino-4-[2′-(4″-sulfonamidophenyl)ethylamino]cyclobut-3-ene-1,2-dione] | – | – | – | – | 881 nM | 819 nM | 1.8 | 1.7 | 490 nM | 9.8 | 9.1 | 90.2 nM | > 250 °C | – | – | – | –
Cc1cc(=O)oc2cc(OCCCCCCCCCNc3c(Nc4ccccc4)c(=O)c3=O)ccc12 [Compound 16c, 3-{[9′-((4″-Methyl-2″-oxo-2″H-chromen-7″-yl)oxy)nonyl]amino}-4-phenylaminocyclobut-3-ene-1,2-dione] | > 10000 nM | > 10000 nM | 19.2 nM | 7.23 nM | – | – | – | – | – | – | – | – | 200 to 201 °C | – | – | – | –
NS(=O)(=O)c1cccc(Nc2c(Nc3ccccc3)c(=O)c2=O)c1 [Compound 11] | – | – | – | – | 580 nM | 95.5 nM | 20 | 3.2 | 29.4 nM | 63 | 10 | 9.5 nM and 9.15 nM | – | – | – | – | –
Cc1c(C)c2ccc(OCCCCCNc3c(Nc4ccc(I)cc4)c(=O)c3=O)cc2oc1=O [Compound 16o, 3-{[5′-(3″,4″-Dimethyl-2″-oxo-2″H-chromen-7″-yl)oxypentyl]amino}-4-(4‴-iodophenylamino)cyclobut-3-ene-1,2-dione] | > 10000 nM | > 10000 nM | 92.1 nM | 50.8 nM | – | – | – | – | – | – | – | – | > 250 °C | – | – | – | –
O=c1cc(-c2ccccc2)c2ccc(OCCCCCNc3c(Nc4ccccc4)c(=O)c3=O)cc2o1 [Compound 16p, 3-Phenylamino-4-{[5′-(4″-Phenyl-2″-oxo-2″H-chromen-7″-yl)oxypentyl]amino}cyclobut-3-ene-1,2-dione] | > 10000 nM | > 10000 nM | 267 nM | 87.9 nM | – | – | – | – | – | – | – | – | 209 to 210 °C | roughly 6.1 fold | roughly 6.1 fold | – | –
Cc1cc(=O)oc2cc(OCCCCCNc3c(Nc4ccc(I)cc4)c(=O)c3=O)ccc12 [Compound 16i, 3-[(4′-Iodophenyl)amino]-4-{[5″-(4‴-methyl-2‴-oxo-2‴H-chromen-7‴-yl)oxypentyl]amino}cyclobut-3-ene-1,2-dione] | > 10000 nM | > 10000 nM | 57 nM | 21.5 nM | – | – | – | – | – | – | – | – | > 250 °C | – | – | – | –
Cc1cc(=O)oc2cc(OCCCNc3c(Nc4ccccc4)c(=O)c3=O)ccc12 [Compound 16a, 3-{[3′-((4″-Methyl-2″-oxo-2″H-chromen-7″-yl)oxy)propyl]amino}-4-phenylaminocyclobut-3-ene-1,2-dione] | > 10000 nM | > 10000 nM | 79.3 nM | 42.1 nM | – | – | – | – | – | – | – | – | > 250 °C | – | – | – | –
NS(=O)(=O)c1ccc(CCNc2c(Nc3ccccc3)c(=O)c2=O)cc1 [Compound 5a, 3-Phenylamino-4-[2′-(4″-sulfonamidophenyl)ethylamino]cyclobut-3-ene-1,2-dione] | – | – | – | – | 211 nM | 720 nM | 2.8 | 9.6 | 75.3 nM | 2.2 | 7.4 | 96.8 nM | > 250 °C | – | – | – | –
Cc1c(C)c2ccc(OCCCCCNc3c(Nc4ccccc4)c(=O)c3=O)cc2oc1=O [Compound 16j, 3-{[5′-((3″,4″-Dimethyl-2″-oxo-2″H-chromen-7″-yl)oxy)pentyl]amino}-4-phenylaminocyclobut-3-ene-1,2-dione] | > 10000 nM | > 10000 nM | 107 nM | 58.3 nM | – | – | – | – | – | – | – | – | > 250 °C | – | – | – | –
Cc1cc(=O)oc2cc(OCCCCCCCCCCCCNc3c(Nc4ccccc4)c(=O)c3=O)ccc12 [Compound 16d, 3-{[12′-((4″-Methyl-2″-oxo-2″H-chromen-7″-yl)oxy)dodecyl]amino}-4-phenylaminocyclobut-3-ene-1,2-dione] | > 10000 nM | > 10000 nM | 18.1 nM | 7.91 nM | – | – | – | – | – | – | – | – | 178 to 179 °C | – | – | – | –
Cc1cc(=O)oc2cc(OCCCCCNc3c(Nc4ccc(F)cc4)c(=O)c3=O)ccc12 [Compound 16f, 3-[(4′-Fluorophenyl)amino]-4-{[5″-(4‴-methyl-2‴-oxo-2‴H-chromen-7‴-yl)oxypentyl]amino}cyclobut-3-ene-1,2-dione] | > 10000 nM | > 10000 nM | 43.7 nM | 15.9 nM | – | – | – | – | – | – | – | – | – | – | – | > 100000 nM | –
Cc1cc(=O)oc2cc(OCCCCCNc3c(Nc4ccc(Br)cc4)c(=O)c3=O)ccc12 [Compound 16h, 3-[(4′-Bromophenyl)amino]-4-{[5″-(4‴-methyl-2‴-oxo-2‴H-chromen-7‴-yl)oxypentyl]amino}cyclobut-3-ene-1,2-dione] | > 10000 nM | > 10000 nM | 46.2 nM | 13.9 nM | – | – | – | – | – | – | – | – | 248 to 249 °C | – | – | – | –
NS(=O)(=O)c1ccc(CCNc2c(Nc3ccc(Br)cc3)c(=O)c2=O)cc1 [Compound 5d, 3-(p-Bromophenyl)amino-4-[2′-(4″-sulfonamidophenyl)ethylamino]cyclobut-3-ene-1,2-dione] | – | – | – | – | 457 nM | 910 nM | 6.8 | 14 | 67.6 nM | 5.3 | 11 | 85.5 nM | > 250 °C | – | – | – | 6.8–14
NS(=O)(=O)c1ccc(Nc2c(Nc3ccccc3)c(=O)c2=O)cc1 [Compound 8, 3-Phenylamino-4-[4′-(sulfonamidophenyl)]aminocyclobut-3-ene-1,2-dione] | – | – | – | – | 98 nM | 65.9 nM | 5.0 | 3.4 | 19.5 nM | 15 | 10 | 6.57 nM | > 250 °C | – | – | – | –
COc1ccc(Nc2c(NCCCCCOc3ccc4c(C)c(C)c(=O)oc4c3)c(=O)c2=O)cc1 [Compound 16k, 3-{[5′-(3″,4″-Dimethyl-2″-oxo-2″H-chromen-7″-yl)oxypentyl]amino}-4-(4‴-methoxyphenylamino)cyclobut-3-ene-1,2-dione] | > 10000 nM | > 10000 nM | 86.5 nM | 45.4 nM | – | – | – | – | – | – | – | – | > 250 °C | – | – | – | –
NS(=O)(=O)c1ccc(CCNc2c(Nc3ccc(I)cc3)c(=O)c2=O)cc1 [Compound 5e, 3-(p-Iodophenyl)amino-4-[2′-(4″-sulfonamidophenyl)ethylamino]cyclobut-3-ene-1,2-dione] | – | – | – | – | 471 nM | 856 nM | 5.1 | 9.2 | 92.7 nM | 5.2 | 9.5 | 90.3 nM | > 250 °C | – | – | – | –
Cc1c(C)c2ccc(OCCCCCNc3c(Nc4ccc(F)cc4)c(=O)c3=O)cc2oc1=O [Compound 16l, 3-{[5′-(3″,4″-Dimethyl-2″-oxo-2″H-chromen-7″-yl)oxypentyl]amino}-4-(4‴-fluorophenylamino)cyclobut-3-ene-1,2-dione] | > 10000 nM | > 10000 nM | 113 nM | 62.9 nM | – | – | – | – | – | – | – | – | > 250 °C | – | – | – | –
